# Measured values reported in patent US9868722B2, “Monocyclic pyrimidine/pyridine compounds as inhibitors of P97 complex” (Cleave Biosciences, Inc., priority 2013, dated 2018).
# Experiments:
# [1] = tested on: K48 poly-Ubiquitin accumulation in A549 cells; test: A549 K48 poly-ubiquitin accumulation immunofluorescence assay; format: cell-based; conditions: Homo sapiens; A549 cells, 6 hr incubation, K48-Ub antibody; read-out: A549 K48 IC50
# Description: Image-analysis is used to generate quantitative data from these assays that can be fit to a four-parameter sigmoid curve to derive IC50 values. Substrates of the ubiquitin-proteasome system, such as p53, are monitored after tumor cell lines are incubated with compounds for several hours. Accumulation of these proteins indicates an inhibition of proteasome-mediated degradation. Accumulation of lysine-48 chain linkage of poly-ubiquitin is also monitored by immunofluorescence as an indicator of ubiquitin-proteasome system inhibition. Both LC3 and SQSTM1 are mediators of autophagy. The localization and amounts of these proteins are monitored by immunofluorescence and report on the activity and inhibition of autophagy in response to p97 inhibition.
# (§1) Plate 25 μL of A549 cells in every well of 384-well plate using multidrop.
# Two (2) black plates for IF at 2500 cells/well
# Serial dilute compounds with a 10 point 2-fold serial dilution in DMSO to make 250× stock compound solution Dilute compounds 1:125 in cell culture media to make a 2× solution Add 25 μl of dilution compounds to cell plates in well duplicates Put cells back in incubator (6 hr incubation for black plates, 72 hr incubation for white plates).
# Incubate cells in black plates with compound at 37 degC for 6 hrs. add 15 μL of 16% Paraformaldehyde (PFA) directly into media of each well, incubate at room temp for 5 min, flick plate and wash in 50 μL of PBS block in 50 μL of Blocking Buffer for 30 minutes (can go up to several hours) Blocking buffer: 1×PBS, 1% BSA, 0.3% Triton-X100, Hoechst (1:10,000) incubate in 25 μL of primary antibody in blocking buffer at 4 degC over night […]
# Secondary Antibodies: • AlexaFluor488 Goat anti-Rabbit 1:2,000 (Life Tech A11008) • AlexaFluor555 Goat anti-Mouse 1:2,000 (Life Tech A21422) incubate in 25 μl of secondary antibody (1:2,000) in blocking buffer for 1-2 hrs at room temp (alexafluor488-anti-Rabbit/alexafluor555-anti-Mouse) Image plates in high content microscope with 405 nm, 488 nm and 555 nm filters Nuclear counts and cellular intensities of each markers are measured using Hoechst as a nuclear marker with an automated image analysis protocol using Matlab software (Math Works) The results are reported on the following Table I for Examples A-EE and the E1-E4 compounds as 50 percent Inhibitory concentration at candidate doses of less than 1 μM, less than 3 μM and less than 10 μM for both of the K48 antibody and the p53 (CTG) antibody assays
# p97 = p97 (Homo sapiens, UniProt P55072); test: P97 ATPase biochemical assay (ADP Glo); conditions: 20 nM p97, 20 uM ATP, 37 degC 15 min
# Description: The ATPase assay is performed according the following protocol: Purified enzyme (20 nM p97), substrate (20 μM ATP) and a dose titration of compounds are mixed in buffer (50 mM TRIS pH 7.5, 20 mM MgCl2, 0.02% TX-100, 1 mM DTT, 0.2% (v/v) glycerol) and incubated at 37° C. for 15 minutes. The reaction is terminated and the level of product generated is measured using the ADP Glo Assay Kit (Promega, Madison Wis.). Plotting product generated versus compound concentration and using a four-parameter fit model generates an IC50 value for each compounds.
# The p97 assay is an initial screening assay used to determine inhibitory activity of the monocyclic pyrimidine compounds of the invention against the p97 complex. As discussed above, inhibition of activity of the p97 proteosome complex can enable apoptosis and cause elimination of neoplastic cells (cancer cells). The method follows that of Christianson in Nat. Cell Biol., (2011) 14:93.
# Assay Buffer is a mixture of 50 mM TRIS pH 7.5, 20 mM MgCl2, 0.02% TX-100, 1 mM DTT and 0.2% (v/v) Glycerol. The well plate is Platetype: Corning 3674, 384w plate. The identification kit is an ADP glo kit (Promega): stop buffer, detection reagent.
# Serial dilute compound in DMSO in a 1:3.33-fold 10 point serial dilution.
# 0.5 μL compound serial diluted in DMSO (Final Conc. 10%)
# 2 μL ATP (Final Conc.=20 uM, diluted in assay buffer)
# 2.5 μL p97 (Final Conc.=20 nM, diluted in assay buffer)
# Incubate at 37 degC for 15 min.
# Add 5 μL of stop buffer, incubate at RT for 40 min.
# Add 10 μL of detection reagent, incubate at RT for 30 min.
# Read luminescence on Envision plate reader. • Upon obtaining the data from the luminescence reading, the data may be analyzed as follows:
# Normalize luminescence data using no enzyme (full inhibition) and no compound (no inhibition) controls. Plot normalized luminescence data against log-transformed concentration values and fit to a sigmoidal curve to determine IC50 values (done in Collaborative Drug Discovery software).
# The results are reported on the following Table for Examples A-EE and the E1-E4 compounds as 50 percent Inhibitory concentration at candidate doses of less than 30 nM, less than 100 nM, less than 300 nM and less than 1000 nM for the p97 inhibition assay.
# A549 cells = test: Cultured cancer cell viability assay (cell titer glo, A549 CTG); format: cell-based; conditions: Homo sapiens; A549 cells, 72 hr incubation, cell titer glo; read-out: A549 CTG IC50
# Description: Anti-tumor effects are monitored in cultured cancer cells after several days of compound treatment. The cell titer glo assay (Promega) measures the amount of ATP present as a proxy for cellular viability. Cellular counting is done using high-content microscopy followed by image analysis. A hanging drop 3D-culture system (3D Biomatrix) is used followed by cell titer glo to measure growth in a tumor-like environment.
# The cellular assay provides information about the anti-neoplastic activity of the compounds of the invention. The compounds are tested against cultured cancer cells to determine whether or not the compounds of the invention are capable of intersecting with cancer cells to minimize or eliminate such cells. The assay involves establishing colonies of such cells and then treating them with the test compound under specified conditions and analysis regime to determine results.
# as §1
# One (1) white plate for viability at 500 cells/well.
# Serial dilute compounds with a 10 point 2-fold serial dilution in DMSO to make 250× stock compound solution
# Dilute compounds 1:125 in cell culture media to make a 2× solution Add 25 μl of dilution compounds to cell plates in well duplicates
# Put cells back in incubator (6 hr incubation for black plates, 72 hr incubation for white plates).
# Thaw an aliquot of frozen cell titer glo (Promega G7572) at room temperature.
# Add 45 mL of NaCl/PBS solution to 5 ml of cell titer glo (10×).
# Remove white plates from incubator, leave at room temp for 30 minutes.
# Add 25 μl of diluted cell titer glo to each well.
# Shake plate for >1 minute.
# Incubate plate for >5 minutes to stabilize luminescence. • Luminescence is stable for up to 3 hours.
# Read luminescence on plate reader
# The results are reported on the following Table I for Examples A-EE and the E1-E4 compounds as 50 percent Inhibitory concentration at candidate doses of less than 1 μM, less than 3 μM and less than 10 μM for both of the K48 antibody and the p53 (CTG) antibody assays
# Caco-2 cell monolayers = conditions: pH 7.4, range over 12 inter-day experiments
# Sequence of p97 (P55072 whole entry): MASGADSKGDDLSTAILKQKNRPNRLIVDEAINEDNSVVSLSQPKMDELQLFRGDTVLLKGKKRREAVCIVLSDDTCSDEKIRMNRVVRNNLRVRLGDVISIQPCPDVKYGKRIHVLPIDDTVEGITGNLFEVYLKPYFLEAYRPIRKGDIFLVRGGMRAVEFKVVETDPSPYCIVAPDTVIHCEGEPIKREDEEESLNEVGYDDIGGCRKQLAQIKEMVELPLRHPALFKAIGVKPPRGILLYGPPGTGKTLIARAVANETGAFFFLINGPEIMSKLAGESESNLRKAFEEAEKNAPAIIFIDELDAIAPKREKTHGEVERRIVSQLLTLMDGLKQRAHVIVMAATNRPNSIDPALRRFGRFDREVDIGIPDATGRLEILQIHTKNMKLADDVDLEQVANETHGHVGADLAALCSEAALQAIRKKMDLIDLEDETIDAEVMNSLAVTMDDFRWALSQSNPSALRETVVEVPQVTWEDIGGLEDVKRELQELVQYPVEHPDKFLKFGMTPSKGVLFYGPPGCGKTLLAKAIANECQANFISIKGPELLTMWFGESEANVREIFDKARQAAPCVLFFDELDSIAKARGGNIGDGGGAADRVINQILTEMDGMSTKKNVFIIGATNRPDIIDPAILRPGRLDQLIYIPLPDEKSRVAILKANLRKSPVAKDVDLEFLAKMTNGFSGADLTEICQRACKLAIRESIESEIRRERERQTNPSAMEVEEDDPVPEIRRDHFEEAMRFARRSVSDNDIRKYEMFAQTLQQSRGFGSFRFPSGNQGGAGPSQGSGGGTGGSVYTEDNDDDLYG
Structure (SMILES),IC50 [1] [nM],IC50 (p97) [nM],IC50 (A549 cells) [nM],"Peff (×E-6 cm/sec) in pH 7.4 Caco-2, A B, Range (Caco-2 cell monolayers; A to B)","Peff (×E-6 cm/sec) in pH 7.4 Caco-2, B A, Range (Caco-2 cell monolayers; B to A)"
"Cc1cc2c(C(N)=O)cccc2n1-c1ncc(C(C)O)c(NCc2ccccc2)n1 (centres unmarked) [Example 34, 1-[4-(benzylamino)-5-(1-hydroxyethyl)pyrimidin-2-yl]-2-methyl-1H-indole-4-carboxamide]",< 3000,< 30,< 3000,,
"Cc1cc2c(C(N)=O)cccc2n1-c1ncc(C(C)N)c(NCc2ccccc2)n1 (centres unmarked) [Example 35, 1-[5-(1-aminoethyl)-4-(benzylamino)pyrimidin-2-yl]-2-methyl-1H-indole-4-carboxamide]",< 10000,< 100,< 10000,,

# The remaining lines, values ahead:
IC50 [1] [nM],IC50 (p97) [nM],IC50 (A549 cells) [nM],"Peff (×E-6 cm/sec) in pH 7.4 Caco-2, A B, Range (Caco-2 cell monolayers; A to B)","Peff (×E-6 cm/sec) in pH 7.4 Caco-2, B A, Range (Caco-2 cell monolayers; B to A)",Structure (SMILES)
< 10000,< 100,< 10000,,,"CNCc1nc(-n2c(C)cc3c(C(N)=O)cccc32)nc(NCc2ccccc2)c1C [Example 36, 1-[4-(benzylamino)-5-methyl-6-[(methylamino)methyl]pyrimidin-2-yl]-2-methyl-1H-indole-4-carboxamide]"
< 3000,< 1000,< 10000,,,"COc1cnc(-n2c(C)cc3c(CN)cccc32)nc1NCc1ccccc1 [Example 37, 2-[4-(aminomethyl)-2-methyl-1H-indol-1-yl]-N-benzyl-5-methoxypyrimidin-4-amine]"
,,,18.50-36.80 ×E-6 cm/sec,16.30-31.40 ×E-6 cm/sec,CC(C)NCC(O)COc1cccc2ccccc12 (centres unmarked) [Propranolol]
